Where two headings read alike, the source gives them in different places.

Experiment [1] concerns BNIP3 gene expression. As to the kind of experiment: BNIP3 gene expression in Hep3B cells (Affymetrix microarray). In kind it is cell-based, human. Conditions: 25 μM, vs DMSO control. Here is the method:
(§1) To identify compounds useful in the methods of the present invention, the following studies were performed. The effect of compounds of the present invention on expression of various genes associated with anti-tumor activity (e.g., genes having anti-proliferative activity, genes having pro-apoptotic activity, genes having anti-tumor activity, etc.). In these experiments, the effect of compounds on BNIP3, BNIP3L, NDRG1, CDKN1C, and REDD1/RTP801 gene expression in various types of cultured tumor cells line was examined, including Hep3B cells (human hepatocellular carcinoma), Kelly neuroblastoma cells, and MCF7 cells (human breast cancer)
(§2) The effects of various compounds of the present invention on the expression of genes associated with tumor growth and progression were examined in Hep3B cells as follows. Hep3B cells (ATCC) were cultured in DMEM containing 8% fetal bovine serum (FBS) and antibiotics. For each experiment, Hep3 cells were added to 6-well tissue culture dishes (approximately 500,000 cells per well). After 8 hours, the media was replaced with DMEM containing 0.5% FBS. Sixteen hours later, various compounds of the present invention were added to the cultured cells to a final concentration of 25 μM. The cells were then harvested and added to RNA extraction buffer (RNeasy, Qiagen). RNA was isolated from cell lysates using RNeasy Mini spin columns (Qiagen) according to the manufacturer's instructions. Changes in expression of various gene transcript levels associated with tumor growth and progression were determined by Affymetrix microarray. Labeled probes were prepared and hybridized to U133A Affyrnetrix microarrays.
(§3) Changes in gene expression levels in vitro following compound addition are presented as fold change relative to gene expression levels observed in control cells treated with DMSO only. Data represents the average of two independent studies.

For experiment [2], the system named is BNIP3L gene expression. Put plainly: BNIP3L gene expression in Hep3B cells (Affymetrix microarray). As to conditions: 25 μM, vs DMSO control. In kind it is cell-based, human. The method, then:
as §1, §2, §3

Experiment [3] has as its system NDRG1 gene expression. Put plainly: NDRG1 gene expression in Hep3B cells (Affymetrix microarray). Conditions: 25 μM, vs DMSO control. In kind it is cell-based, human. Here is the method:
as §1, §2, §3

Experiment [4] deals with REDD1/RTP801 gene expression. Put plainly: REDD1/RTP801 gene expression in Hep3B cells (Affymetrix microarray). Conditions: 25 μM, vs DMSO control. In kind it is cell-based, human. Here is the method: as §1, §2, §3
Experiment [5] has as its system BNIP3 gene expression. As to the kind of experiment: BNIP3 gene expression in MCF7 cells. In kind it is cell-based. As to conditions: Homo sapiens; MCF7 cells; 20 μM; 20-24 hours; vs 0.5% DMSO control; read-out: fold-increase in BNIP3 mRNA expression. The method, then:
as §1
(§4) The effects of various compounds of the present invention on the expression of genes associated with tumor growth and progression were examined in MCF7 breast cancer cells as follows. In some experiments, MCF7 (ATCC) cells were plated in 96-well tissue culture dishes (approximately 20,000 cells per well) and cultured in DMEM media supplemented with 10% serum. The following day, the cells were washed and the media was replaced with DMEM containing 0.5% FBS. Various compounds of the present invention were added to the cultured cells to a final concentration of 20 μM, and the cells cultured for an additional 20-24 hours. DMSO (0.5%) was added to control cell cultures. RNA was isolated as described above. Changes in gene expression levels are presented as fold change compared to that of control (0.5% DMSO-treated) cultures.
In other experiments, MCF7 cells were plated in 96-well tissue culture dishes as described above. After 24 hours, the cells were washed and the media was replaced with DMEM containing 0.5% FBS. Various compounds of the present invention were added to the cultured cells to a final concentration of 20 μM. DMSO (0.5%) was added to control cell cultures. After 24 hours, changes in gene expression of BNIP3 and 18S RNA were determined directly using one-step quantitative multiplex RT-PCR reactions according to the manufacturer's instructions (QuantiTect Multiplex RT-PCR Kit, Qiagen, catalog no. 204643). Changes in gene expression levels are presented as fold change compared to that of control (0.5% DMSO-treated) cultures.

Experiment [6] relates to BNIP3 gene expression. As to the kind of experiment: BNIP3 gene expression in Kelly neuroblastoma cells. In kind it is cell-based. Conditions: Kelly cells; 20 μM; 20-24 hours; normalized to 18S RNA; vs DMSO control; read-out: fold-increase in BNIP3 mRNA expression. The method, then:
as §1
(§5) The effects of various compounds of the present invention on the expression of genes associated with tumor growth and progression were examined in Kelly neuroblastoma cells as follows. Kelly neuroblastoma cells were grown in RPMI media. For each experiment, Kelly neuroblastoma cells were added to 96-well tissue culture plates (approximately 40,000 cells per well) such that the plated cells reached confluence the following day. On the following day, the cells were washed and the media replaced with RPMI containing 0.5% FBS. Various compounds of the present invention were added to the cultured cells to a final concentration of 20 μM, and the cells cultured for an additional 20-24 hours. DMSO (0.5%) was added to control cell cultures.
(§6) RNA was isolated from the Kelly neuroblastoma cells using a commercial kit and used for the preparation of cDNA. BNIP3, CDKN1C, and 18S RNA levels were measured using commercial kits (18S, Applied Biosystems cat#4319413E); BNIP3, Applied Biosystems cat#HS00969293 MH). RNA levels for BNIP3 and CDKN1C were normalized to that of 18S RNA and is presented as fold-change compared to that observed in DMSO control cultures. Kelly cell NDRG1 and BNIP3L mRNA levels were measured by Affymetrix microarray in a separate study. Cells were harvested after 6 hours incubation with 20 μM test compound or DMSO (0.5%) as control. RNA was isolated and labeled probes were prepared and hybridized to U133 Plus 2.0 Affymetrix microarrays. Changes in gene expression levels are presented as fold change compared to that of control (0.5% DMSO-treated) cultures.

Experiment [7] deals with CDKN1C gene expression. As to the kind of experiment: CDKN1C gene expression in MCF7 cells. In kind it is cell-based. Conditions: Homo sapiens; MCF7 cells; 20 μM; 20-24 hours; vs 0.5% DMSO control; read-out: fold-increase in CDKN1C mRNA expression. The method, then: as §1, §4
Experiment [8] concerns CDKN1C gene expression. As to the kind of experiment: CDKN1C gene expression in Kelly neuroblastoma cells. In kind it is cell-based. Conditions: Kelly cells; 20 μM; 20-24 hours; normalized to 18S RNA; vs DMSO control; read-out: fold-increase in CDKN1C mRNA expression. The method, then:
as §1, §5, §6

The subject of experiment [9] is BNIP3 gene expression. Put plainly: In vivo BNIP3 gene expression in Swiss Webster mice (quantitative PCR). As to conditions: Mus musculus, iv, 4 h, single 60 mg/kg i.v. dose, four hours after administration, normalized to 18S, read-out: fold change in BNIP3 mRNA level. The method, then:
(§7) The effects of various compounds of the present invention on the expression of genes associated with tumor growth and progression (e.g., expression of genes associated with anti-proliferative effects) were examined in vivo as follows. In these studies, male Swiss Webster mice (25 g) were administered a single intravenous (i.v.) dose of various compounds (60 mg/kg) of the present invention via the tail vein. Four hours after administration of compound, the kidneys and liver were removed and preserved in RNAlater (Ambion). RNA isolation and cDNA synthesis was carried out as follows. Murine kidney tissue was added to TRIzol (Invitrogen) and homogenized using a 5-mm stainless steel bead for 4 minutes at 25 Hz in a Mixer Mill 300 (Qiagen). Homogenates were extracted with chloroform according to the manufacturer's instructions and aqueous supernatants were isolated. The aqueous supernatants were combined with equal volumes of 70% ethanol and then loaded onto RNeasy Mini spin columns (Qiagen). RNA was isolated according to the manufacturer's instructions.
(§8) Synthesis of cDNA from the isolated total RNA was carried out using Omniscript reverse transcriptase (Qiagen) and random primers according to the manufacturer's instructions. Measurement of gene expression levels in compound-treated animals and in vehicle-treated control animals was performed by quantitative PCR using TaqMan Universal PCR Master Mix (Applied Biosystems) and TaqMan Assay-on-Demand assays (Applied Biosystems) in a Prism 7000 system instrument (Applied Biosystems), according to manufacturer's instructions. The assays used were as follows: 18S ribosomal RNA, Hs99999901_s1; BNIP3, Mm00833810_g1; BNIP3L, Mm00786306_s1; NDRG1, Mm00440447_m1. Each PCR amplification reaction included a standard curve and a water blank. Data for gene expression levels for BNIP3, BNIP3L, and NDRG1 were normalized to that of 18S ribosomal RNA within each sample. Data is presented as fold change in specific mRNA levels relative to that of non-treated control animals.

For experiment [10], the system named is BNIP3L gene expression. Put plainly: In vivo BNIP3L gene expression in Swiss Webster mice (quantitative PCR). As to conditions: Mus musculus, iv, 4 h, single 60 mg/kg i.v. dose, four hours after administration, normalized to 18S, read-out: fold change in BNIP3L mRNA level. The method, then: as §7, §8
For experiment [11], the system named is NDRG1 gene expression. As to the kind of experiment: In vivo NDRG1 gene expression in Swiss Webster mice (quantitative PCR). Conditions: Mus musculus, iv, 4 h; kidney; single 60 mg/kg i.v. dose; four hours after administration; normalized to 18S; read-out: fold change in NDRG1 mRNA level. Here is the method: as §7, §8

With `COc1ccc(CCN(CCC(=O)NO)S(=O)(=O)c2ccc(NC(=O)N(Cc3ccccc3)Cc3ccccc3)cc2)cc1` [Compound G, 3-{[4-(3,3-Dibenzyl-ureido)-benzenesulfonyl]-[2-(4-methoxy-phenyl)-ethyl]-amino}-N-hydroxy-propionamide], the “fold-increase in BNIP3 mRNA expression” value with BNIP3 gene expression [1] came to 4.2 fold. Besides, the “fold-increase in BNIP3L mRNA expression” value with BNIP3L gene expression [2] is 4.3 fold. Besides, the “fold-increase in NDRG1 mRNA expression” value in the experiment with NDRG1 gene expression [3] came to 6.8 fold. Further, the “fold-increase in REDD1/RTP801 mRNA expression” value in [4] is given as 14.1 fold.

Consider `O=C(O)CNC(=O)c1nc2cc(Cl)ccc2cc1O` [Compound H, [(7-Chloro-3-hydroxy-quinoline-2-carbonyl)-amino]-acetic acid], for which, in the experiment on BNIP3 gene expression [1], the “fold-increase in BNIP3 mRNA expression” value is reported as 2.0 fold. Moreover, the fold induction at 20 µM with BNIP3 gene expression [5] is 3.2; with BNIP3 gene expression [6], 5.9; with CDKN1C gene expression [7], 0.7; in the experiment with CDKN1C gene expression [8] it was 11.6. Besides, the “fold-increase in BNIP3L mRNA expression” value in the experiment on BNIP3L gene expression [2] came out at 1.5 fold. Moreover, in the experiment with NDRG1 gene expression [3], the “fold-increase in NDRG1 mRNA expression” value is recorded as 2.4 fold. Further, the “fold-increase in REDD1/RTP801 mRNA expression” value in [4] came out at 2.4 fold.

In the case of `O=C(O)CNC(=O)c1ncc2cc(Cl)c(Cl)cc2c1O` [Compound J, [(6,7-Dichloro-4-hydroxy-isoquinoline-3-carbonyl)-amino]-acetic acid], the fold induction at 20 µM with BNIP3 gene expression [5] amounted to 3.3; in the experiment on BNIP3 gene expression [6], 8.9; in the experiment on CDKN1C gene expression [7] it was 0.8; with CDKN1C gene expression [8], 6.9. Also, the fold induction at 60 mg/kg came out at 2 with BNIP3 gene expression [9] (kidney), 1.3 in the experiment on BNIP3L gene expression [10] (kidney) and 1.7 in the experiment with NDRG1 gene expression [11].

`COc1ccc2c(O)c(C(=O)NCC(=O)O)nc(Cl)c2c1` [Compound I, [(1-Chloro-4-hydroxy-7-methoxy-isoquinoline-3-carbonyl)-amino]-acetic acid]: the “fold-increase in BNIP3 mRNA expression” value in the experiment with BNIP3 gene expression [1] came out at 2.1 fold. Besides, the “fold-increase in BNIP3L mRNA expression” value with BNIP3L gene expression [2] is 1.7 fold. In addition, the “fold-increase in NDRG1 mRNA expression” value in the experiment on NDRG1 gene expression [3] came to 3.3 fold. Further, the “fold-increase in REDD1/RTP801 mRNA expression” value in experiment [4] worked out at 3.8 fold.

Turning to `C[C@H](NC(=O)c1ncc2cc(Sc3ccccc3)ccc2c1O)C(=O)O` [Compound L, (S)-2-[(4-Hydroxy-7-phenylsulfanyl-isoquinoline-3-carbonyl)-amino]-propionic acid], the fold induction at 20 µM turned out to be 4.8 with BNIP3 gene expression [5], 32.8 with BNIP3 gene expression [6], 0.2 in the experiment on CDKN1C gene expression [7] and 120 in the experiment on CDKN1C gene expression [8]. Also, the fold induction at 60 mg/kg with BNIP3 gene expression [9] (kidney) was found to be 2.8; in the experiment with BNIP3L gene expression [10] (kidney), 3.4; in the experiment with NDRG1 gene expression [11], 1.

`O=C(O)c1c[nH]c2c(ccc3cccnc32)c1=O` [Compound F, 4-Oxo-1,4-dihydro-[1,10]phenanthroline-3-carboxylic acid]: in the experiment on BNIP3 gene expression [1], the “fold-increase in BNIP3 mRNA expression” value is 3.5 fold. Moreover, the “fold-increase in BNIP3L mRNA expression” value with BNIP3L gene expression [2] is recorded as 3.2 fold. Moreover, the “fold-increase in NDRG1 mRNA expression” value in the experiment on NDRG1 gene expression [3] is on record as 5.4 fold. In addition, the “fold-increase in REDD1/RTP801 mRNA expression” value in experiment [4] stood at 6.3 fold. The fold induction at 60 mg/kg in the experiment with BNIP3 gene expression [9] (liver) was 1.1; in the experiment on BNIP3L gene expression [10] (liver), 1.3.

`O=C(O)CNC(=O)c1ncc2cc(Oc3ccccc3)ccc2c1O` [Compound K, [(4-Hydroxy-7-phenoxy-isoquinoline-3-carbonyl)-amino]-acetic acid]: the “fold-increase in BNIP3 mRNA expression” value in the experiment on BNIP3 gene expression [1] came out at 3.0 fold. The fold induction at 20 µM in the experiment with BNIP3 gene expression [5] came out at 7.7. In addition, in the experiment on BNIP3L gene expression [2], the “fold-increase in BNIP3L mRNA expression” value stood at 2.2 fold. In the experiment on NDRG1 gene expression [3], the “fold-increase in NDRG1 mRNA expression” value is 3.3 fold. Moreover, the “fold-increase in REDD1/RTP801 mRNA expression” value in experiment [4] turned out to be 4.8 fold.

Consider `O=C(O)CNC(=O)c1nc(Oc2ccccc2)c2cc(Oc3ccccc3)ccc2c1O` [Compound M, [(4-Hydroxy-1,7-diphenoxy-isoquinoline-3-carbonyl)-amino]-acetic acid], for which the fold induction at 20 µM came to 0.4 in the experiment with BNIP3 gene expression [5], 27.6 in the experiment with BNIP3 gene expression [6], 2.1 in the experiment with CDKN1C gene expression [7] and 3.4 in the experiment with CDKN1C gene expression [8].
